Laboratory results taken from patent US5162328A, “N-[3-[2-(1H-imidazol-1-yl)ethoxy]phenyl]-4-(2-thienyl)-2-pyrimidinamine and pharmacologically acceptable salts” (American Cyanamid Company, priority 1991, dated 1992).
Read-outs that look alike come from different tables or passages of the source.

Assay: Pharmacokinetics in dogs (plasma concentration by HPLC)
Assay type: in vivo, dog (beagle)
Details: for AUC(0-inf): read-out: AUCO- (to infinite time); for concentration at 0.5 h / concentration at 1 h / concentration at 2 h / concentration at 4 h / concentration at 7 h / Cmax / AUC(0-t) at 4 h: one dog (Dog 1); for concentration at 0.5 h / concentration at 1 h / concentration at 2 h / concentration at 4 h / concentration at 7 h: heading: Plasma concentration; for AUC(0-t) at 4 h: read-out: AUC0-4
Experimental: Since dogs are used in toxicology studies of antiasthma compounds, this species is chosen for pharmacokinetic evaluations. Use of the dog permits the pharmacokinetic comparison of 2 or more compounds in the same test animal, an evaluation which could not be conveniently performed in a smaller species. For each test compound, normal dogs are given a dose of 2.0 mg/kg/day for 5 consecutive days. There is a washout period of 1 month between the study of each of the test compounds in the same four dogs. Each test compound is administered as a solution of 5 mg/ml in either 0.05 or 0.1N HCl which is dispensed into a gelatin capsule immediately prior to dosage.
Heparinized blood samples are obtained from each animal on the first, third and fifth day of dosage at 0.5, 1.0, 2.0, 4.0, 7.0, 12.0 and 24.0 hours after the dose. The samples are centrifuged immediately to obtain plasma which is frozen until analyzed.
Analysis of plasma is performed using High Performance Liquid Chromatography (HPLC). The analytical procedure is essentially identical for each compound. The internal standard used for N-[3-[2-(1H-imidazol-1-yl)ethoxy]phenyl]-4-(2-thienyl)2-pyrimidinamine is 2-chloro-11-(4-methyl-1-piperazinyl)dibenz[b,f][1,4]oxazepine succinate, while for 2-methyl-N^4 -[4-(4-pyridinyl)-2-pyrimidinyl]-1,4-benzenediamine dihydrochloride and N-[4-[2-(diethylamino)ethoxy]phenyl]-4-(4-pyridinyl)-2-pyrimidnamine dihydrochloride the internal standard is 7-ethoxy-coumarin. In a typical procedure, a 0.4 ml volume of acetonitrile containing internal standard is added a 0.2 ml volume of serum. The sample is mixed by vortexing and centrifuged. The clear protein free supernatent fluid is decanted into a clean tube and evaporated to dryness. The dry residue is dissolved in 0.2 ml of HPLC mobile phase and 50 ul of this solution injected. Peaks corresponding to the test compound being measured and to the internal standard compound are quantitated by their absorption of ultraviolet light at 280 nm. Each set of analytical samples is accompanied by the analysis of a group of standard dog plasma samples prepared to contain amounts of the compound being measured which encompasses the concentration range of the samples.
Four normal beagle dogs weighing between 9.2 and 10.2 Kg are used in the study.

[1] = dog, plasma, po, 2 mg/kg/day, Dog 1, day 1, 2 mg/kg/day PO
[2] = dog, plasma, po, 2 mg/kg/day, Dog 1, day 3, 2 mg/kg/day PO
[3] = dog, plasma, po, 2 mg/kg/day, Dog 1, day 5, 2 mg/kg/day PO
[4] = dog, plasma, po, 2 mg/kg/day, day 1, 2 mg/kg/day PO
[5] = dog, plasma, po, 2 mg/kg/day, day 3, 2 mg/kg/day PO
[6] = dog, plasma, po, 2 mg/kg/day, day 5, 2 mg/kg/day PO

CCN(CC)CCOc1ccc(Nc2nccc(-c3ccncc3)n2)cc1.Cl.Cl [Compound 3, N-[4-[2-(diethylamino)ethoxy]phenyl]-4-(4-pyridinyl)-2-pyrimidinamine dihydrochloride, reference compound]
Tmax [1]: 1 h | half-life [1]: 1.77 h | AUC(0-inf) [1]: 374 ng·h/mL | Tmax [2]: 1 h | half-life [2]: 1.25 h | AUC(0-inf) [2]: 423 ng·h/mL | Tmax [3]: 1 h | half-life [3]: 2.16 h | AUC(0-inf) [3]: 392 ng·h/mL | concentration at 0.5 h (dog, plasma, po, 2 mg/kg/day, day 1, 0.5 h, 2 mg/kg/day PO): 30 ng/mL | concentration at 1 h (dog, plasma, po, 2 mg/kg/day, day 1, 1.0 h, 2 mg/kg/day PO): 125 ng/mL | concentration at 2 h (dog, plasma, po, 2 mg/kg/day, day 1, 2.0 h, 2 mg/kg/day PO): 102 ng/mL | concentration at 4 h (dog, plasma, po, 2 mg/kg/day, day 1, 4.0 h, 2 mg/kg/day PO): 40 ng/mL | concentration at 7 h (dog, plasma, po, 2 mg/kg/day, day 1, 7.0 h, 2 mg/kg/day PO): < 30 ng/mL | Cmax [4]: 125 ng/mL | AUC(0-t) at 4 h [4]: 302 ng·h/mL | concentration at 0.5 h (dog, plasma, po, 2 mg/kg/day, day 3, 0.5 h, 2 mg/kg/day PO): 124 ng/mL | concentration at 1 h (dog, plasma, po, 2 mg/kg/day, day 3, 1.0 h, 2 mg/kg/day PO): 192 ng/mL | concentration at 2 h (dog, plasma, po, 2 mg/kg/day, day 3, 2.0 h, 2 mg/kg/day PO): 81 ng/mL | concentration at 4 h (dog, plasma, po, 2 mg/kg/day, day 3, 4.0 h, 2 mg/kg/day PO): 34 ng/mL | concentration at 7 h (dog, plasma, po, 2 mg/kg/day, day 3, 7.0 h, 2 mg/kg/day PO): < 30 ng/mL | Cmax [5]: 192 ng/mL | AUC(0-t) at 4 h [5]: 362 ng·h/mL | concentration at 0.5 h (dog, plasma, po, 2 mg/kg/day, day 5, 0.5 h, 2 mg/kg/day PO): < 30 ng/mL | concentration at 1 h (dog, plasma, po, 2 mg/kg/day, day 5, 1.0 h, 2 mg/kg/day PO): 153 ng/mL | concentration at 2 h (dog, plasma, po, 2 mg/kg/day, day 5, 2.0 h, 2 mg/kg/day PO): 82 ng/mL | concentration at 4 h (dog, plasma, po, 2 mg/kg/day, day 5, 4.0 h, 2 mg/kg/day PO): 55 ng/mL | concentration at 7 h (dog, plasma, po, 2 mg/kg/day, day 5, 7.0 h, 2 mg/kg/day PO): < 30 ng/mL | Cmax [6]: 153 ng/mL | AUC(0-t) at 4 h [6]: 293 ng·h/mL | k el (dog, plasma, po, 2 mg/kg/day, derived from mean of half-life values, read-out: elimination constant (converted)): 0.000155 s⁻¹ | measurable concentrations in plasma (in words) (four dogs, 2 mg/kg/day PO): only one dog provided measurable concentrations of compound in the plasma
